Converted amounts (≈) assume the structure as drawn. “Also recorded” adds a separate entry of the source.
Assays:
[1] = tested on: Staphylococcus intermedius #2357 (clinical isolate from the Copenhagen area); assay: MIC determination in broth microdilution assay; type: cell-based; details: C: Staphylococcus intermedius #2357 clinical isolate; MH-broth microdilution
[2] = tested on: panel of 10 different non-fastidious bacteria growing aerobically; assay: Activity against non-fastidious bacteria (panel, discussed in words); type: cell-based; details: for activity against pathogenic Gram-positive bacteria (in words): Gram-positive non-fastidious bacteria, comparison with Licochalcone A
[3] = tested on: Eschericia coli ATCC25922; assay: MIC determination in broth microdilution assay; type: cell-based; details: for activity against Eschericia coli (in words): Gram-negative prototype, Table 1; for MIC: G: Eschericia coli ATCC25922, MH-broth microdilution
[4] = tested on: Staphylococcus aureus ATCC33591 (resistant to methicillin); assay: MIC determination in broth microdilution assay; type: cell-based; details: B: Staphylococcus aureus ATCC33591 (resistant to methicillin); MH-broth microdilution
[5] = tested on: Staphylococcus aureus ATCC29213; assay: MIC determination in broth microdilution assay; type: cell-based; details: A: Staphylococcus aureus ATCC29213; MH-broth microdilution
[6] = tested on: Enterococcus faecium #17501 (vancomycin-resistant clinical isolate); assay: MIC determination in broth microdilution assay; type: cell-based; details: E: Enterococcus faecium #17501 vancomycin-resistant clinical isolate; MH-broth microdilution
[7] = tested on: Enterococcus faecalis ATCC29212; assay: MIC determination in broth microdilution assay; type: cell-based; details: D: Enterococcus faecalis ATCC29212; MH-broth microdilution
[8] = tested on: Streptococcus pneumoniae #998 (clinical isolate); assay: MIC determination in broth microdilution assay; type: cell-based; details: F: Streptococcus pneumoniae #998 clinical isolate; MH-broth microdilution
[9] = Pharmacokinetic studies, intravenous, mice; type: in vivo, female NMRI mice
Method: Evaluation of the pharmacokinetic properties of the compounds was done using female NMRI mice (weighing app. 30 g). Test articles were administrated intravenously and Samples of serum were taken at defined time-points. Standards and QC-samples in plasma were prepared and the serum concentrations of the test compounds quantified by HPLC-MS. Prior to analysis, proteins were precipitated by deluding the samples (1:1) (v/v) with 100% acetonitrile followed by centrifugation at 14,000 rpm in 10 min. The supernatant was used for the analysis. A Waters Alliance HPLC-system (Milford, Mass., USA) was coupled to a Quatro Micro triple quadropl mass spectrometer (Micromass, Manchester, UK) operating in positive (ESI) mode. Separation was performed on a XTerra MS C18 column (150*2.1 mm I.D., 3,5 μm particle size) (Waters Milford, Mass., USA). Mobile phase A: 0.1% (v/v) formic acid or 10 mM ammonium acetate pH-adjusted to 9.5 in MilliQ-water, mobile phase B: 100% methanol. The gradient was as follows: 0 min=70% A-30% B, 0-10 min. a linear gradient to 10% A and 90% B this was maintained till 11 min, 11-13 linear gradient to 70% A and 30% B this was maintained till 18 min. The flow rate was 0.20 ml/min, injection volume 10 μl.

[10] = tested on: panel of anaerobic bacteria (Bacteroides fragilis, Clostridium perfringens, Clostridium difficele); type: cell-based; details: single concentration of compound (100 μM); agar dilution
[11] = MIC of D-001 quoted in the pharmacokinetic profile (strain not named); type: cell-based
[12] = tested on: panel of six strains Helicobacter pylori, includes strains resistant to metronidazole; assay: MIC determination against Helicobacter pylori (agar dilution); details: 72 h, read-out: MICs against Helicobacter pylori
S. aureus ATCC29213 = assay: Killing curve determination (time-kill curve); type: cell-based, Staphylococcus aureus; details: for bactericidal activity (CFU counts per ml in time-kill curve): concentrations above the MIC; for dependence of the bactericidal action: time-kill curve
S. aureus E2371 = assay: Killing curve determination (time-kill curve); type: cell-based, Staphylococcus aureus; details: for bactericidal activity (CFU counts per ml in time-kill curve): concentrations above the MIC; for dependence of the bactericidal action: time-kill curve

| SMILES | MIC [1] | activity against pathogenic Gram-positive bacteria (in words) [2] | activity against Eschericia coli (in words) [3] | MIC [4] | MIC [5] | MIC [6] | MIC [7] | MIC [8] | Cmax ([9]; female, NMRI, mouse, serum, iv, single i.v. dose of 5 mg/ml) | volume of distribution ([9]; i.v., as indicated by the plasma concentration) | MIC [3] | activity against anaerobic bacteria [10] | MIC [11] | MIC [12] | bactericidal activity (CFU counts per ml in time-kill curve) (S. aureus ATCC29213) | dependence of the bactericidal action (S. aureus ATCC29213) | bactericidal activity (CFU counts per ml in time-kill curve) (S. aureus E2371) | dependence of the bactericidal action (S. aureus E2371) | antibacterial effect (in words) ([2]; whole panel of non-fastidious bacteria) |
| --- | --- | --- | --- | --- | --- | --- | --- | --- | --- | --- | --- | --- | --- | --- | --- | --- | --- | --- | --- |
| C=CC(C)(C)c1cc(/C=C/C(=O)c2ccc(O)cc2)c(OC)cc1O [LicA, Licochalcone A] | 37.5 µM (≈ 12.7 µg/mL) | moderate bactericidal activity | only modest or no activity | 37.5 µM (≈ 12.7 µg/mL) | 37.5 µM (≈ 12.7 µg/mL) | 37.5 µM (≈ 12.7 µg/mL) | 37.5 µM (≈ 12.7 µg/mL) | 75 µM (≈ 25.4 µg/mL) | – | – | – | – | – | – | – | – | – | – | – |
| COc1ccc(C(=O)/C=C/c2cc(-c3cc(C)cc(C)c3)ccc2OCC[N+](C)(C)C)c(Cl)c1.[I-] [D-001, (2-{3-[3-(2-Chloro-4-methoxy-phenyl)-3-oxo-propenyl]-3′,5′-dimethyl-biphenyl-4-yloxy}-ethyl)-trimethyl-ammonium; iodide] | 2.4 µM | increased potency | – | 4.7 µM | 2.4 µM | 4.7 µM | 4.7 µM | 18.8 µM | 126 µg/mL | very low | 37.5 µM | activity against all microorganisms within the test panel | approximately 1 μg/mi | 50 to 100 µM | – | – | – | – | – |
| Cc1cc(C)cc(-c2ccc(OCC[N+](C)(C)C)c(/C=C/C(=O)c3ccc(N)cc3)c2)c1 [D-002, (2-{3-[3-(4-Amino-phenyl)-3-oxo-propenyl]-3′,5′-dimethyl-biphenyl-4-yloxy}-ethyl)-trimethyl-ammonium; iodide] | 9.4 µM | – | – | 9.4 µM | 9.4 µM | 18.8 µM | 18.8 µM | 18.8 µM | – | – | 75 µM | – | – | – | – | – | – | – | – |
| Cc1cc(C)cc(-c2ccc(OCCN(C)C)c(/C=C/C(=O)c3ccc(N)cc3)c2)c1 [SM008, (E)-1-(4-Amino-phenyl)-3-[4-(2-dimethylamino-ethoxy)-3′,5′-dimethyl-biphenyl-3-yl]-propenone] | 9.4 µM (≈ 3.9 µg/mL) | – | – | 9.4 µM (≈ 3.9 µg/mL) | 9.4 µM (≈ 3.9 µg/mL) | 9.4 µM (≈ 3.9 µg/mL) | 18.8 µM (≈ 7.79 µg/mL) | 18.8 µM (≈ 7.79 µg/mL) | – | – | – | – | – | – | – | – | – | – | – |
| COc1ccc(C(=O)/C=C/c2cc(-c3cc(C)cc(C)c3)ccc2OCC[N+](C)(C)C)c(C[N+](C)(C)C)c1.[I-].[I-] [D-007] | 9.4 µM | – | – | 18.8 µM | 18.8 µM | 75 µM | 150 µM | 75 µM | – | – | 75 µM | – | – | – | bactericidal | primarily dependent on incubation time; also recorded: predominantly dependent on the time of incubation with the compound | – | – | – |
| Cc1cc(C)cc(-c2ccc(OCCN(C)C)c(/C=C/C(=O)c3ccccc3N)c2)c1 [SM009, (E)-1-(2-Amino-phenyl)-3-[4-(2-dimethylamino-ethoxy)-3′,5′-dimethyl-biphenyl-3-yl]-propenone] | 4.7 µM (≈ 1.95 µg/mL) | – | – | 4.7 µM (≈ 1.95 µg/mL) | 4.7 µM (≈ 1.95 µg/mL) | 4.7 µM (≈ 1.95 µg/mL) | 9.4 µM (≈ 3.9 µg/mL) | 18.8 µM (≈ 7.79 µg/mL) | – | – | – | – | – | – | – | – | – | – | – |
| CCCCN(CCCC)c1ccc(/C=C/C(=O)c2cccc(C[N+](C)(C)C)c2)cc1 [D-005, {3-[3-(4-Dibutylamino-phenyl)-acryloyl]-benzyl}-trimethyl-ammonium] | 4.7 µM | increased potency | – | 9.4 µM | 4.7 µM | 9.4 µM | 18.8 µM | 37.5 µM | – | – | 75 µM | – | – | – | bactericidal | primarily dependent on the concentration of the test compound | – | – | – |
| CCCCN(CCCC)c1ccc(/C=C/C(=O)c2cccc(CN(C)C)c2)cc1 [SM011, (E)-3-(4-Dibutylamino-phenyl)-1-(3-dimethylaminomethyl-phenyl)-propenone] | 9.4 µM (≈ 3.69 µg/mL) | – | – | 9.4 µM (≈ 3.69 µg/mL) | 9.4 µM (≈ 3.69 µg/mL) | 9.4 µM (≈ 3.69 µg/mL) | 9.4 µM (≈ 3.69 µg/mL) | 18.8 µM (≈ 7.38 µg/mL) | – | – | – | – | – | – | – | – | – | – | – |
| Cc1cc(C)cc(-c2ccc(OCC[N+](C)(C)C)c(/C=C/C(=O)c3ccccc3N)c2)c1.[I-] [D-003, (2-{3-[3-(2-Amino-phenyl)-3-oxo-propenyl]-3′,5′-dimethyl-biphenyl-4-yloxy}-ethyl)-trimethyl-ammonium; iodide] | 2.4 µM | – | high activity | 4.7 µM | 4.7 µM | 4.7 µM | 4.7 µM | 18.8 µM | – | – | 18.8 µM | – | – | – | – | – | bactericidal | primarily dependent on the concentration of the test compound; also recorded: predominantly dependent on the concentration of the compound | – |
| C[N+](C)(C)CCOc1ccc(-c2ccccc2)cc1/C=C/C(=O)c1cccc(C[N+](C)(C)C)c1.[I-].[I-] [D-006] | 18.8 µM | – | – | 18.8 µM | 18.8 µM | 37.5 µM | 75 µM | 150 µM | – | – | – | – | – | – | – | – | bactericidal | primarily dependent on the concentration of the test compound | – |
| COc1ccc(C(=O)/C=C/c2cc(-c3ccccc3OC)ccc2N2CCN(C)CC2)c(F)c1 [SM010, (E)-1-(2-Fluoro-4-methoxy-phenyl)-3-[2′-methoxy-4-(4-methyl-piperazin-1-yl)-biphenyl-3-yl]-propenone] | 9.4 µM (≈ 4.33 µg/mL) | – | – | 9.4 µM (≈ 4.33 µg/mL) | 4.7 µM (≈ 2.16 µg/mL) | 9.4 µM (≈ 4.33 µg/mL) | 18.8 µM (≈ 8.66 µg/mL) | 37.5 µM (≈ 17.3 µg/mL) | – | – | – | – | – | – | – | – | – | – | – |
| COc1ccc(C(=O)/C=C/c2cc(-c3ccccc3OC)ccc2N2CC[N+](C)(C)CC2)c(F)c1 [D-004, 4-{3-[3-(2-Fluoro-4-methoxy-phenyl)-3-oxo-propenyl]-2′-methoxy-biphenyl-4-yl}-1,1-dimethyl-piperazin-1-ium] | 9.4 µM | – | – | 9.4 µM | 18.8 µM | 18.8 µM | 18.8 µM | 37.5 µM | – | – | 75 µM | – | – | – | – | – | – | – | – |
| CN(C)CCOc1ccc(-c2ccccc2)cc1/C=C/C(=O)c1cccc(CN(C)C)c1 [SM012, (E)-3-[4-(2-Dimethylamino-ethoxy)-biphenyl-3-yl]-1-(3-dimethylaminomethyl-phenyl)-propenone] | 18.8 µM (≈ 8.06 µg/mL) | – | – | 18.8 µM (≈ 8.06 µg/mL) | 18.8 µM (≈ 8.06 µg/mL) | 18.8 µM (≈ 8.06 µg/mL) | 18.8 µM (≈ 8.06 µg/mL) | 18.8 µM (≈ 8.06 µg/mL) | – | – | 37.5 µM (≈ 16.1 µg/mL) | – | – | – | – | – | – | – | – |
| COc1ccc(C(=O)/C=C/c2ccccc2)cc1 [4′-MC, 4′methoxy chalcone, reference compound] | – | – | – | – | – | – | – | – | – | – | – | – | – | – | – | – | – | – | no antibacterial effect at all |
| COc1ccc(C(=O)/C=C/c2cc(-c3cc(C)cc(C)c3)ccc2OCCN(C)C)c(CN(C)C)c1 [SM013, (E)-3-[4-(2-Dimethylamino-ethoxy)-3′,5′-dimethyl-biphenyl-3-yl]-1-(2-dimethylaminomethyl-4-methoxy-phenyl)-propenone] | 18.8 µM (≈ 9.15 µg/mL) | – | – | 9.4 µM (≈ 4.57 µg/mL) | 4.7 µM (≈ 2.29 µg/mL) | 4.7 µM (≈ 2.29 µg/mL) | 4.7 µM (≈ 2.29 µg/mL) | 4.7 µM (≈ 2.29 µg/mL) | – | – | 75 µM (≈ 36.5 µg/mL) | – | – | – | – | – | – | – | – |
| COc1ccc(C(=O)/C=C/c2cc(-c3cc(C)cc(C)c3)ccc2OCCN(C)C)c(Cl)c1 [SM007, (E)-1-(2-Chloro-4-methoxy-phenyl)-3-[4-(2-dimethylamino-ethoxy)-3′,5′-dimethyl-biphenyl-3-yl]-propenone] | 4.7 µM (≈ 2.18 µg/mL) | – | – | 4.7 µM (≈ 2.18 µg/mL) | 4.7 µM (≈ 2.18 µg/mL) | 4.7 µM (≈ 2.18 µg/mL) | 9.4 µM (≈ 4.36 µg/mL) | 18.8 µM (≈ 8.72 µg/mL) | – | – | – | – | – | – | – | – | – | – | – |

— US20080027075A1, “Quaternary Amino-Function Chalcones” (Lica Pharmaceuticals A/S, priority 2003, published 2008)
